Data on 7 molecules can be found in ChEMBL document CHEMBL1139662, “Synthesis and biological investigation of new 4''-malonyl tethered derivatives of erythromycin and clarithromycin” (Bioorg Med Chem Lett, 2006).

≈ marks a conversion by molar mass, not a printed value.

For assay [1], the system named is Escherichia coli. Nature of the assay: Inhibition of protein synthesis in Escherichia coli cell-free translational system. The class given is functional.
Assay [2] relates to Escherichia coli. The experiment in a line: Antibacterial activity against macrolide-sensitive Escherichia coli HN818. The class given is functional.

Take `CC[C@H]1OC(=O)[C@H](C)[C@@H](OC2C[C@@](C)(OC)[C@@H](OC(=O)CC(=O)OCc3ccccc3)[C@H](C)O2)[C@H](C)[C@@H](OC2O[C@H](C)C[C@H](N(C)C)[C@H]2O)[C@](C)(O)C[C@@H](C)C(=O)[C@H](C)[C@@H](O)[C@]1(C)O` (stereo partly drawn): in assay [1], the IC50 (as a rule, the concentration needed to halve the response being measured) is 1100 nM. For the same molecule, in assay [2], the MIC (usually the smallest concentration in the dilution series that meets the test's criterion for growth inhibition) was 8 µg/mL (≈ 8.79 µM).
The like results for `CC[C@H]1OC(=O)[C@H](C)[C@@H](OC2C[C@@](C)(OC)[C@@H](OC(=O)CC(=O)N(C)CCN(C)C)[C@H](C)O2)[C@H](C)[C@@H](OC2O[C@H](C)C[C@H](N(C)C)[C@H]2O)[C@](C)(O)C[C@@H](C)C(=O)[C@H](C)[C@@H](O)[C@]1(C)O` (stereo partly drawn) were, in that order, 1100 nM and 8 µg/mL (≈ 8.85 µM).
`CC[C@H]1OC(=O)[C@H](C)[C@@H](OC2C[C@@](C)(OC)[C@@H](OC(=O)CC(=O)O)[C@H](C)O2)[C@H](C)[C@@H](OC2O[C@H](C)C[C@H](N(C)C)[C@H]2O)[C@](C)(OC)C[C@@H](C)C(=O)[C@H](C)[C@@H](O)[C@]1(C)O` (stereo partly drawn): the midpoint of inhibition in assay [1], the IC50, lay at 3900 nM. Further, the MIC in assay [2] was determined as 128 µg/mL (≈ 153 µM).
In the case of `CC[C@H]1OC(=O)[C@H](C)[C@@H](OC2C[C@@](C)(OC)[C@@H](OC(=O)CC(=O)OCc3ccccc3)[C@H](C)O2)[C@H](C)[C@@H](OC2O[C@H](C)C[C@H](N(C)C)[C@H]2O)[C@](C)(OC)C[C@@H](C)C(=O)[C@H](C)[C@@H](O)[C@]1(C)O` (stereo partly drawn), in assay [1], the IC50 was determined as 1200 nM. In assay [2], this molecule came in with an MIC of 8 µg/mL (≈ 8.66 µM).
The like results for `CC[C@H]1OC(=O)[C@H](C)[C@@H](OC2C[C@@](C)(OC)[C@@H](OC(=O)CC(=O)O)[C@H](C)O2)[C@H](C)[C@@H](OC2O[C@H](C)C[C@H](N(C)C)[C@H]2O)[C@](C)(O)C[C@@H](C)C(=O)[C@H](C)[C@@H](O)[C@]1(C)O` (stereo partly drawn) were, in that order, 3700 nM and 128 µg/mL (≈ 156 µM).
In assay [2], `CC[C@H]1OC(=O)[C@H](C)[C@@H](O[C@H]2C[C@@](C)(OC)[C@@H](O)[C@H](C)O2)[C@H](C)[C@@H](O[C@@H]2O[C@H](C)C[C@H](N(C)C)[C@H]2O)[C@](C)(OC)C[C@@H](C)C(=O)[C@H](C)[C@@H](O)[C@]1(C)O` [CLARITHROMYCIN] had an MIC of 2 µg/mL (≈ 2.67 µM).
For `CC[C@H]1OC(=O)[C@H](C)[C@@H](O[C@H]2C[C@@](C)(OC)[C@@H](O)[C@H](C)O2)[C@H](C)[C@@H](O[C@@H]2O[C@H](C)C[C@H](N(C)C)[C@H]2O)[C@](C)(O)C[C@@H](C)C(=O)[C@H](C)[C@@H](O)[C@]1(C)O` [ERYTHROMYCIN], the IC50 in assay [1] turned out to be 900 nM. The same molecule yielded an MIC in assay [2] of 2 µg/mL (≈ 2.73 µM).
